According to patent US20240245791A1, “METHODS AND COMPOSITIONS FOR LOCALIZATION OF GROWTH FACTORS” (Arizona Board of Regents on Behalf of the University of …, priority 2021, published 2024):
Read-outs that look alike come from different tables or passages of the source.

Assays:
collagen IV [1] = settings: vs scrambled peptide control biotin-CBPi-QK; measured using Alexafluor 488 streptavidin
collagen IV sites = settings: unconjugated VEGF; limited to the number of collagen IV sites available; cited from earlier work
collagen IV [2] = experiment: binding assay to collagen IV of CBP-VEGF vs CBPi-VEGF, ELISA for VEGF121; settings: vs scrambled peptide control CBPi-VEGF; measured using an ELISA for VEGF121
Procedure: The result is measured using an ELISA for VEGF121.

Molecule: biotin-CQDSETRT-KLTWQELYQLKYKGI-COOH (SEQ ID NO: 16) [biotin-CBP-QK]
- binding to collagen IV (collagen IV [1]): significantly greater than the scrambled control at all concentrations

Molecule: VEGF
- share of VEGF added to a scaffold that will bind (collagen IV sites): 5%

B1: CBP-VEGF: VEGF121 protein conjugated by click chemistry to collagen binding protein CBP (CQDSETRTFY, SEQ ID NO: 1) (conjugate)
chain: APMAEGGGQNHHEVVKFMDVYQRSYCHPIETLVDIFQEYPDEIEYIFKPSCVPLMRCGGCCNDEGLECVPTEESNITMQIMRIKPHQGQHIGEMSFLQHNKCECRPKKDRARQEKCDKPRR
peptide: CQDSETRTFY
- binding to collagen IV (collagen IV [2]): significantly greater than the scrambled control at all concentrations
